According to patent US8263353B2, “Method for detecting autoprocessed, secreted PCSK9” (Merck Sharp & Dohme Corp., priority 2007, dated 2012):
Blank lines part the entries; values can stand above or below the substance they belong to.

Legend:
Assay type in all cases: cell-based
PCSK9 processing [1] = target: T1, PCSK9 processing (Homo sapiens, UniProt Q8NBP7, G670E/V474I); experiment: Co-transfection of PCSK9 pro domain with wild type V5/His-tagged PCSK9, western blot of cell lysate and media; conditions: co-transfected pro domain
T1 construct: expressed in transfected cells
T1 sequence (Q8NBP7 31-692 V474I/G670E): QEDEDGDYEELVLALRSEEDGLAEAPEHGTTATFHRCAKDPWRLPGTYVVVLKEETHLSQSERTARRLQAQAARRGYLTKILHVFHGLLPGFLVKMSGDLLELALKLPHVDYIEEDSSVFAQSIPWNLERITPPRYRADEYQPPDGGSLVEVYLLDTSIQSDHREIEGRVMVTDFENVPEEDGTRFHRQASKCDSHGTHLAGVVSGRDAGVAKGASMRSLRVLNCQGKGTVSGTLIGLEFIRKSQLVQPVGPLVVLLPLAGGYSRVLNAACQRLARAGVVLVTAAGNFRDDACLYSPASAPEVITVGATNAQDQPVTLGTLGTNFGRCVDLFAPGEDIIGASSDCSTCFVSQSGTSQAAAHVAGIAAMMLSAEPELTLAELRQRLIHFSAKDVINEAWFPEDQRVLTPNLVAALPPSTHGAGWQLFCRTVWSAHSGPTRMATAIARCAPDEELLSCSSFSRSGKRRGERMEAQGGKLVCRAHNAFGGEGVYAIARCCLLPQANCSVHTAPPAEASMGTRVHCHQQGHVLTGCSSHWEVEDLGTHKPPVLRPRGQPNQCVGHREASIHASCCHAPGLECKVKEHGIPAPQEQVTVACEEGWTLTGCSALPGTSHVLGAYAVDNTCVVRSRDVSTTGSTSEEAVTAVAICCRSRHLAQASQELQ
Protocol: FIGS. 10A and 10B illustrate inhibition of PSCK9 processing through co-transfection of PCSK9 pro domain. The figure illustrates the inhibition of PCSK9 processing is similar whether the domain is untagged, or tagged at the N-terminus with either an HA or His tag. […] The lanes are in order wild-type; wild-type; pro domain; HA pro domain; His pro domain.
Cells carrying vector alone (pcDNA3.1) or vector plus PCSK9 (PCSK9-152 FLAG-V5/His and PCSK9-152 FLAG-V5/His-S386A) were plated in 1×DMEM containing 1 mg/ml G418 supplemented with 10% FBS. After 24 hr, the media was switched to DMEM media lacking serum. After an additional 6 hr, the media was removed and the cells were lysed in RIPA buffer (TEKNOVA) plus Complete protease inhibitor cocktail (Roche). Protein concentration was assayed with BCA Protein Assay Kit (Pierce). […] of proteins from lysate or 15 μl media were loaded on 10-20% Tris-Glycine gels (Invitrogen). Following transfer, membranes were successively incubated with 1:5000 anti-VS (Invitrogen), 1:3000 anti-FLAG ml (Sigma-Aldrich Co.) or 1:3000 anti_FLAG m2 (Sigma-Aldrich Co.) primary antibody and 1:3000 anti-mouse IgG (H+L) alkaline phosphatase conjugate (Promega). Bands were subsequently detected using a 1-step NBT/BCIP Kit (Pierce) according to manufacturer's instructions. […]

[2] = test system: diI-LDL uptake in HEK293 cells; experiment: DiI-LDL uptake assay (PCSK9-dependent LDL-uptake assay)
Protocol: Blood for LDL isolation was obtained from healthy human volunteers. Blood (200 ml) was collected in EDTA tubes and spun at 15,000 rpm for 15 min at 4° C. Plasma density was adjusted to 1.02 g/ml with sodium bromide and the tubes were centrifuged at 45,000 rpm in Ti70 ultracentrifuge rotor for 20 hr. The VLDL layer was removed and the bottom layer was recalibrated to a density of 1.063 g/ml with sodium bromide. The tubes were again centrifuged at 45,000 rpm in Ti70 rotor for 72 hr. The LDL layer was removed and dialysed against PBS pH 7.4 and 0.5 M EDTA. The final protein concentration was determined using a BCA Protein Assay Kit. LDL was labeled with a fluorescent DiI particle (Molecular Probes). A stock solution containing 3 mg of DiI dissolved in 1 ml of dimethyl sulfoxide (DMSO) was prepared. This stock solution of D11 was added to LDL at a final concentration of 135 μg of DiI to 1 ml of LDL. The labeling reaction was incubated at 37° C. for 24 hr in the dark followed by LDL isolation as mentioned above.
HEK293 cells stably expressing the vector pcDNA3.1 alone were plated in a 96-well poly D-lysine coated plate (Corning) at a density of 30,000 cells/well in 1×DMEM, containing 1 mg/ml G418 and 10% FBS (HEK293). A similar plating protocol was followed for HepG2 and CHO cells except that G418 was not added to the media. After 24 hr, the media was switched to DMEM media lacking serum. After 18 hr, the media was removed and the cells were washed with OptiMEM (Invitrogen). Purified PCSK9 protein was added to the cells in 100 μl of mixture B (DMEM containing 10% lipoprotein deficient serum (LPDS) (Intracel) and 10 μg/ml dI-LDL). To measure non-specific binding, 100 μl of mixture B that also contained 400 μg/ml unlabeled LDL was added to control wells. The plates were incubated at 37° C. for 6.5 hours and the cells were washed quickly in Tris-buffered saline (TBS, Biorad) containing 2 mg/ml Bovine Serum Albumin (BSA) (Sigma). The wash step was repeated, but this time the wash buffer was incubated for 2 min with the cells. Last, the cells were quickly washed twice with TBS (without BSA) and lysed in 100 μl RIPA buffer. The lysate was transferred to a 96-well black plate (Thermo Labsystem) and fluorescence was measured using a SpectraMAX tunable spectrofluorometer (Molecular Devices) at an excitation wavelength of 520 nm and an emission wavelength of […] Total cellular protein was measured in each well using a BCA Protein Assay and the fluorescence units were normalized to total protein. The amount of specific LDL uptake (specific counts) is the difference between the total counts measured (in the absence of unlabeled LDL) and the counts measured in the presence of an excess of unlabeled LDL (non-specific background fluorescence). […]

PCSK9 processing [3] = target: T2, PCSK9 processing (Homo sapiens, UniProt Q8NBP7, D186A/G670E/V474I); experiment: Western blot of HEK293 cells stably expressing PCSK9 mutant D186A; conditions: HEK293 stable cell line; FIG. 11A
T2 construct: expressed in transfected cells
T2 sequence (Q8NBP7 31-692 D186A/V474I/G670E): as the sequence (Q8NBP7 31-692 V474I/G670E) above, with D156A counted along it
Protocol: Cells carrying vector alone (pcDNA3.1) or vector plus PCSK9 (PCSK9-152 FLAG-V5/His and PCSK9-152 FLAG-V5/His-S386A) were plated in 1×DMEM containing 1 mg/ml G418 supplemented with 10% FBS. After 24 hr, the media was switched to DMEM media lacking serum. After an additional 6 hr, the media was removed and the cells were lysed in RIPA buffer (TEKNOVA) plus Complete protease inhibitor cocktail (Roche). Protein concentration was assayed with BCA Protein Assay Kit (Pierce). […] of proteins from lysate or 15 μl media were loaded on 10-20% Tris-Glycine gels (Invitrogen). Following transfer, membranes were successively incubated with 1:5000 anti-VS (Invitrogen), 1:3000 anti-FLAG ml (Sigma-Aldrich Co.) or 1:3000 anti_FLAG m2 (Sigma-Aldrich Co.) primary antibody and 1:3000 anti-mouse IgG (H+L) alkaline phosphatase conjugate (Promega). Bands were subsequently detected using a 1-step NBT/BCIP Kit (Pierce) according to manufacturer's instructions.
420:55-67. […] Media from the D186A stable cell line was purified using column chromatography (as described) to obtain both purified nonprocessed and processed D186A (FIG. 11B). Similar to the WT PCSK9 protein processed D186A retains the pro domain after several column purifications (FIG. 11B).

amount of processed PCSK9 in cell lysate compared to cells expressing wild type alone (PCSK9 processing [1]; cell lysate, FIG. 10A): reduced | processed PCSK9 detected in the media (PCSK9 processing [1]; media, FIG. 10B): less processed PCSK9 was detected
Substance: PCSK9 pro domain: Human PCSK9 pro domain (SEQ ID NO: 20, residues 31-152) expressed from co-transfected nucleic acid

Substance: nonprocessed D186A: Purified secreted, nonprocessed form of human PCSK9 mutant D186A (SEQ ID NO: 34)
fold less active than processed PCSK9 in PCSK9-dependent LDL uptake ([2]; FIG. 11C): ~20 fold | activity in PCSK9-dependent LDL-uptake assay ([2]; HEK293 cells, purified protein, FIG. 11C): only weakly active

extent of processing (PCSK9 processing [3]): 10-20%
Substance: D186A PCSK9 mutant: Human PCSK9 single catalytic-triad mutant D186A stably expressed in HEK293 cells

Substance: processed D186A: Purified secreted, autoprocessed form of human PCSK9 catalytic-triad mutant D186A, retaining the pro domain
fold weaker in potency than WT PCSK9 ([2]; HEK293 cells): approximately 4 fold | EC50 ([2]; HEK293 cells, purified protein, FIG. 11C, read-out: EC50 (amount of PCSK9 protein required for 50% inhibition of diI-LDL uptake)): 189 nM
